What follows are compounds tested on NCIH929.1 cells (assay: Cell viability assay for Table 2 (CellTiter-Glo 2.0, ATP quantification, 96 hr)). Details: 96 h, NCIH929.1 cell viability, 96 hr, top concentration 1 μM, 14 points half log titration; read-out: IC50.
Assay type: cell-based
From the text: Cell Viability Assay for Table 2
CellTiter-Glo® 2.0 Assay was purchased from Promega (Madison, Wis., USA). NCIH929.1 cell line was purchased from ATCC (Manassas, Va., USA). Cell culture flasks and 384-well microplates were acquired from VWR (Radnor, Pa., USA).

For COC(C)(C)CN1CCC(n2cc(Cc3ccc4c5c(cccc35)C(=O)N4C3CCC(=O)NC3=O)cn2)CC1 (stereo not drawn) [Compound 58, 3-(6-((1-(1-(2-methoxy-2-methylpropyl)piperidin-4-yl)-1H-pyrazol-4-yl)methyl)-2-oxobenzo[cd]indol-1(2H)-yl)piperidine-2,6-dione], which IC50 is on record?
The IC50 was < 1 nM.

With CC(C)(C)OC(=O)N1CCC(c2ccc3c4c(cccc24)C(=O)N3C2CCC(=O)NC2=O)CC1 (stereo not drawn) [Compound 276, tert-butyl 4-[1-(2,6-dioxo-3-piperidyl)-2-oxo-benzo[cd]indol-6-yl]piperidine-1-carboxylate] as the compound, how does the IC50 read?
Its IC50 is > 999 nM.

CN1CCN(Cc2ccc(Cc3ccc4c5c(cccc35)C(=O)N4C3CCC(=O)NC3=O)cc2)CC1 (stereo not drawn) [Compound 114, 3-(6-(4-((4-methylpiperazin-1-yl)methyl)benzyl)-2-oxobenzo[cd]indol-1(2H)-yl)piperidine-2,6-dione] was tested. Which IC50 did it give?
Its IC50 is < 1 nM.

For N#Cc1ccc(N2CCC(Cc3ccc(Cc4ccc5c6c(cccc46)C(=O)N5C4CCC(=O)NC4=O)cc3)CC2)c(F)c1 (stereo not drawn) [Compound 151, 4-(4-(4-((1-(2,6-dioxopiperidin-3-yl)-2-oxo-1,2-dihydrobenzo[cd]indol-6-yl)methyl)benzyl)piperidin-1-yl)-3-fluorobenzonitrile], which IC50 is on record?
The IC50 was < 1 nM.

For CC1(CN2CCC(n3cc(Cc4ccc5c6c(cccc46)C(=O)N5C4CCC(=O)NC4=O)cn3)CC2)CC1 (single isomer, unassigned) [Compound 234, 3-[6-[[1-[1-[(1-methylcyclopropyl)methyl]-4-piperidyl]pyrazol-4-yl]methyl]-2-oxo-benzo[cd]indol-1-yl]piperidine-2,6-dione], which IC50 is on record?
Its IC50 is < 1 nM.

How did the IC50 turn out when O=C1CCC(N2C(=O)c3cccc4c(Cc5ccc(CN6CCN(c7ccccc7F)CC6)cc5)ccc2c34)C(=O)N1 (stereo not drawn) [Compound 188, 3-[6-[[4-[[4-(2-fluorophenyl)piperazin-1-yl]methyl]phenyl]methyl]-2-oxo-benzo[cd]indol-1-yl]piperidine-2,6-dione] was run?
Its IC50 is < 1 nM.

How did the IC50 turn out when O=C1CCC(N2C(=O)c3cccc4c(Cc5ccc(CN6CCn7c(nnc7C(F)(F)F)C6)cc5)ccc2c34)C(=O)N1 (stereo not drawn) [Compound 121, 3-(2-oxo-6-(4-((3-(trifluoromethyl)-5,6-dihydro-[1,2,4]triazolo[4,3-a]pyrazin-7(8H)-yl)methyl)benzyl)benzo[cd]indol-1(2H)-yl)piperidine-2,6-dione] was run?
Its IC50 is < 1 nM.

How did the IC50 turn out when CC1(n2cc(Cc3ccc4c5c(cccc35)C(=O)N4C3CCC(=O)NC3=O)cn2)CCN(C(=O)C23CC(C2)C3)CC1 (stereo not drawn) [Compound 91, 3-(6-((1-(1-(bicyclo[1.1.1]pentane-1-carbonyl)-4-methylpiperidin-4-yl)-1H-pyrazol-4-yl)methyl)-2-oxobenzo[cd]indol-1(2H)-yl)piperidinc-2,6-dione] was run?
The IC50 was < 1 nM.

Which IC50 does the source give for CC1(C(=O)N2CCC(n3cc(C4(c5ccc6c7c(cccc57)C(=O)N6C5CCC(=O)NC5=O)CC4)cn3)CC2)CCC1 (stereo not drawn) [Compound 163, 3-[6-[1-[1-[1-(1-methylcyclobutanecarbonyl)-4-piperidyl]pyrazol-4-yl]cyclopropyl]-2-oxo-benzo[cd]indol-1-yl]piperidine-2,6-dione] here?
Its IC50 is < 1 nM.

CC(C)(O)C1CCN(Cc2ccc(Cc3ccc4c5c(cccc35)C(=O)N4C3CCC(=O)NC3=O)cc2)CC1 (stereo not drawn) [Compound 232, 3-(6-(4-((4-(2-hydroxypropan-2-yl)piperidin-1-yl)methyl)benzyl)-2-oxobenzo[cd]indol-1(2H)-yl)piperidine-2,6-dione] was tested. Which IC50 did it give?
Its IC50 is < 1 nM.

With CC1(n2cc(Cc3ccc4c5c(cccc35)C(=O)N4C3CCC(=O)NC3=O)cn2)CCN(C(=O)C(C)(C)C(F)(F)F)CC1 (stereo not drawn) [Compound 82, 3-(6-((1-(4-methyl-1-(3,3,3-trifluoro-2,2-dimethylpropanoyl)piperidin-4-yl)-1H-pyrazol-4-yl)methyl)-2-oxobenzo[cd]indol-1(2H)-yl)piperidine-2,6-dione] as the compound, how does the IC50 read?
Its IC50 is < 1 nM.

For O=C1CCC(N2C(=O)c3cccc4c(Cc5ccc(CN6CCN(C(=O)C7CC7)CC6)cc5)ccc2c34)C(=O)N1 (stereo not drawn) [Compound 112, 3-(6-(4-((4-(cyclopropanecarbonyl)piperazin-1-yl)methyl)benzyl)-2-oxobenzo[cd]indol-1(2H)-yl)piperidine-2,6-dione], which IC50 is on record?
The IC50 was < 1 nM.
